Data taken from patent US7396841B2, “Injections” (Takeda Pharmaceutical Company Limited, priority 2000, dated 2008).

Test: Dissolution of compound A in equimolar 0.2 mol/L sodium hydroxide and appearance of aqueous preparations (Examples 1 and 2)
Format: physicochemical
Procedure: The resultant solutions (1 mL and 2 mL) were filled into vials to prepare injectable compositions of formulations 1 and 2 in Table 1.
In accordance with the formulation of preparation solution in Table 2, the compound A was dissolved in the equivalent amount (in molar ratio) of a sodium hydroxide aqueous solution (0.2 mol/L), and then mannitol, N-methylglucamine and a water for injection were added thereto to dissolve followed by sterile filtration with a filter (0.22 μm) made from Durapola (manufactured by Nihon Millipore Ltd.) to prepare a preparation solution for injectable composition A.

Appearance of resultant solution (compound A in equimolar sodium hydroxide aqueous solution (0.2 mol/L)): transparent and colorless
Dissolution of compound A (in the equivalent amount (in molar ratio) of a sodium hydroxide aqueous solution (0.2 mol/L)): quickly dissolved
Compound: Cc1c(OCC(F)(F)F)ccnc1C[S+]([O-])c1nc2ccccc2[nH]1 (centres unmarked) [Compound A, 2-[[[3-methyl-4-(2,2,2-trifluoroethoxy)-2-pyridinyl]methyl]sulfinyl]-1H-benzimidazole]
